Experimental findings from patent US6221914A, “Sulfonamide bridging compounds that inhibit tryptase activity” (Array Biopharma Inc., priority 1998, dated 2001) are described below.

Structures are written as SMILES.

What all share (assay type): biochemical
One experiment addresses Human lung tryptase. The experiment can be described thus: Ki determination, human lung tryptase (Tosyl-Gly-Pro-Arg-pNA substrate). To be noted: 50 mM Tris-HCl pH 8.0, 37° C., 1 nM tryptase, 320 μM GPR-pNA; read-out: Experimentally Determined Ki, Tryptase. The gist of the method: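 Human lung tryptase (gel-filtration purified, active-site titrated), 1 nM final, preincubated 5 min with compound in 50 mM Tris-HCl pH 8.0, 150 mM NaCl, 0.02% Triton X-100 at 37° C. Tosyl-Gly-Pro-Arg-pNA (320 μM final) added; A405 read after 15 min. Ki from fitting to two-site competitive binding equation.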

For experiment [1], the target named is T1, Bovine pancreatic Trypsin (Bos taurus, UniProt P00760).
T1 construct: from tissue; host or cells: bovine pancreas
T1 sequence (P00760 24-246): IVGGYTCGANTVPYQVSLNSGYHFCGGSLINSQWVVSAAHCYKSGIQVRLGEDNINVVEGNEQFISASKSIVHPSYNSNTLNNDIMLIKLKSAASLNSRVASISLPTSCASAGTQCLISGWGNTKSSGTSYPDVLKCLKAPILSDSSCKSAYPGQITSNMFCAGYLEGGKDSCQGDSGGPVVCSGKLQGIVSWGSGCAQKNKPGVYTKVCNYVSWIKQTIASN
The experiment can be described thus: Ki determination, bovine pancreatic trypsin (N-a-Benzoyl-L-Arg-pNA). To be noted: 50 mM Tris-HCl, pH 8.2, 20 mM CaCl2; read-out: Experimentally Determined Ki, Trypsin. The gist of the method:
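TPCK-treated bovine trypsin was preincubated with compound for 15 min at 37° C in 50 mM Tris-HCl pH 8.2, 20 mM CaCl2, then N-a-Benzoyl-L-Arg-pNA was added and p-nitroaniline read at 405 nm. Ki came from the tight-binding equation, with [E]o from active-site titration and a substrate correction, or from competitive-inhibitor equations when Ki >>[E]o.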

A further experiment deals with T2, Human plasma thrombin (Homo sapiens, UniProt P00734).
T2 construct: from tissue; host or cells: human plasma
Kind of experiment: Ki determination, human plasma thrombin (H-D-Phe-Pip-Arg-pNA). Particulars: 50 mM Tris-HCl, pH 8.3, 100 mM NaCl, 1% BSA; read-out: Experimentally Determined Ki, Thrombin. The method, boiled down:
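Plasma thrombin preincubated with compound 15 min at 37 °C in 50 mM Tris-HCl pH 8.3, 100 mM NaCl, 1% BSA, then H-D-Phe-Pip-Arg-pNA added; p-nitroaniline release read at 405 nm. Ki from tight-binding equation (active-site-titrated enzyme) corrected for substrate, or competitive-inhibitor equation when Ki >> [E]o.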

The next experiment has as its target r-tissue kallikrein (Homo sapiens, UniProt P06870). Kind of experiment: Ki determination, r-tissue kallikrein (DL-Val-Leu-Arg-pNA). To be noted: 50 mM Tris-HCl, pH 7.8, 200 mM NaCl, 0.05% BSA; read-out: Experimentally Determined Ki, Tissue Kallikrein. The gist of the method:
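Enzyme preincubated with test compound 15 min at 37° C in 50 mM Tris-HCl pH 7.8, 200 mM NaCl, 0.05% BSA; residual activity read at 405 nm after adding H-D-Prolyl-Phe-Arg-pNA (plasma) or DL-Val-Leu-Arg-pNA (tissue). Ki from tight-binding equation (enzyme active-site titrated) corrected for substrate, or competitive-inhibitor equation when Ki >>[E]o.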

In experiment [2] the target is T3, Bovine Pancreatic Chymotrypsin (Bos taurus, UniProt P00766).
T3 construct: from tissue; host or cells: bovine pancreas
The experiment can be described thus: Ki determination, bovine pancreatic chymotrypsin (N-Suc-Ala-Ala-Pro-Phe-pNA). To be noted: 100 mM Tris-HCl, pH 7.8, 10 mM CaCl2; read-out: Experimentally Determined Ki, Chymotrypsin. The method, boiled down:
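Enzyme was preincubated with test compound for 15 min at 37° C before N-Suc-Ala-Ala-Pro-Phe-pNA was added, in 100 mM Tris-HCl, pH 7.8, 10 mM CaCl2. p-Nitroaniline release was read at 405 nm. Ki came from the tight-binding equation with [E]o set by active-site titration and corrected for substrate, or from competitive-inhibitor equations when Ki >>[E]o.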

Chain of r-tissue kallikrein (P06870 25-262): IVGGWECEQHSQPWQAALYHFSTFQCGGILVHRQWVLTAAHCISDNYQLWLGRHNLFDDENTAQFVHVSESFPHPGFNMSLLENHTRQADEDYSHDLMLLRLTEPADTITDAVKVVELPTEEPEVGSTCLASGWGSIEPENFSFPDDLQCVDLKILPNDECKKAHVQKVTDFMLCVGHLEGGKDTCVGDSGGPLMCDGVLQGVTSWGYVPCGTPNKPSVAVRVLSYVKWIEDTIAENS

`N=C(N)c1cccc(C(=O)NCc2ccc(OCCCCOc3ccc(CNC(=O)c4cccc(C(=N)N)c4)cc3)cc2)c1` [Example 61, 1,4-Bis-{4-[(3-carbamimidoyl-benzenecarbonylamino)-methyl]-phenoxy}-butane]: the inhibition constant Ki on Human lung tryptase was 0.01 µM; in experiment [1] it was 1.2 µM; on Human plasma thrombin, more than 100 µM; on r-tissue kallikrein it was more than 100 µM; in experiment [2] it was more than 100 µM.
Take `N=C(N)c1ccc(C(=O)NCc2ccc(OCCCOc3ccc(CNC(=O)c4cccc(C(=N)N)c4)cc3)cc2)cc1` [Example 85, 4-Carbamimidoyl-N-[4-(3-{4-[(3-carbamimidoyl-benzoylamino)-methyl]-phenoxy}-propoxy)-benzyl]-benzamide]: the Ki was 0.003 µM at Human lung tryptase; 1.1 µM in experiment [1]; more than 100 µM at Human plasma thrombin; more than 100 µM on r-tissue kallikrein; more than 100 µM in experiment [2].
Turning to `N=C(N)c1cccc(C(=O)NCc2ccc(OCCCCCOc3ccc(CNC(=O)c4cccc(C(=N)N)c4)cc3)cc2)c1` [Example 55, 1,5-Bis-{4-[(3-carbamimidoyl-benzenecarbonylamino)-methyl]-phenoxy}-pentane], the inhibition constant Ki is 0.01 µM at Human lung tryptase; 0.9 µM in experiment [1]; more than 100 µM at Human plasma thrombin; more than 100 µM at r-tissue kallikrein; more than 100 µM in experiment [2].
Turning to `N=C(N)c1ccc(C(=O)NCc2cccc(OCCCCCOc3cccc(CNC(=O)c4ccc(C(=N)N)cc4)c3)c2)cc1` [Example 76, 1,5-Bis-{3-[(4-carbamimidoyl-benzenecarbonylamino)-methyl]-phenoxy}-pentane], the Ki was 0.005 µM on Human lung tryptase; 0.83 µM in experiment [1]; 21 µM at Human plasma thrombin; 5 µM on r-tissue kallikrein; more than 100 µM in experiment [2].
In the case of `N=C(N)c1ccc(C(=O)NCc2ccc(OCC3(COc4ccc(CNC(=O)c5ccc(C(=N)N)cc5)cc4)CCC3)cc2)cc1` [Example 93, 1,1-Bis-{4-[(4-carbamimidoyl-benzoyl-amino)-methyl]-phenoxy-methyl}-cyclobutane], the Ki at Human lung tryptase was 0.001 µM; in experiment [1], 1.5 µM; on Human plasma thrombin, more than 100 µM; at r-tissue kallikrein, 14 µM; in experiment [2] it was more than 100 µM.
Take `N=C(N)c1cccc(S(=O)(=O)NCc2ccc(OCCCOc3ccc(CNS(=O)(=O)c4cccc(C(=N)N)c4)cc3)cc2)c1` [Example 49, 3,1-Bis-{4-[(3-carbamimidoyl-benzenesulfonylamino)-methyl]-phenoxy}-propane]: the inhibition constant Ki at Human lung tryptase is 0.02 µM; in experiment [1], 2.8 µM; on Human plasma thrombin, more than 100 µM; at r-tissue kallikrein, more than 100 µM; in experiment [2], more than 100 µM.
For `N=C(N)c1cccc(S(=O)(=O)NCc2ccc(OCCCCCCCOc3ccc(CNS(=O)(=O)c4cccc(C(=N)N)c4)cc3)cc2)c1` [Example 45, 1,7-Bis-{4-[(3-carbamimidoyl-benzenesulfonylamino)-methyl]-phenoxy}-heptane], the Ki at Human lung tryptase was 0.8 µM; in experiment [1] it was 12 µM; on Human plasma thrombin, more than 100 µM; at r-tissue kallikrein it was more than 100 µM; in experiment [2], more than 100 µM.
